Measurements published in ChEMBL document CHEMBL4190350, “Synthesis, antimicrobial, antiquorum-sensing, antitumor and cytotoxic activities of new series of cyclopenta(hepta)[b]thiophene and fused cyclohepta[b]thiophene analogs” (Eur J Med Chem, 2017).
Values after ≈ are worked out from the molar mass of the structure shown.

Experiments:
[1] = system: Escherichia coli; assay: Antimicrobial activity against Escherichia coli incubated for 24 hrs by disc diffusion assay; format: functional
[2] = system: Bacillus cereus; assay: Antimicrobial activity against Bacillus cereus incubated for 24 hrs by disc diffusion assay; format: functional
[3] = system: Staphylococcus aureus; assay: Antimicrobial activity against Staphylococcus aureus incubated for 24 hrs by disc diffusion assay; format: functional
[4] = system: Candida albicans; assay: Antimicrobial activity against Candida albicans incubated for 48 hrs by disc diffusion assay; format: functional
[5] = system: Aspergillus fumigatus; assay: Antimicrobial activity against Aspergillus fumigatus incubated for 48 hrs by disc diffusion assay; format: functional
[6] = system: Chromobacterium violaceum; assay: Inhibition of quorum sensing system in Chromobacterium violaceum ATCC 12472 assessed as inhibition of violacein production at 5 mg/mL incubated for 48 hrs
[7] = system: Aspergillus fumigatus; assay: Antimicrobial activity against Aspergillus fumigatus incubated for 48 hrs by serial dilution method; format: functional
[8] = system: HepG2; assay: Antitumor activity against human HepG2 cells assessed as inhibition of cell viability incubated for 48 hrs by MTT assay; format: functional, cell-based; details: HepG2, 48 h
[9] = system: MCF7; assay: Antitumor activity against human MCF7 cells assessed as inhibition of cell viability incubated for 48 hrs by MTT assay; format: functional, cell-based; details: MCF7, 48 h
[10] = system: HT-29; assay: Antitumor activity against human HT-29 cells assessed as inhibition of cell viability incubated for 48 hrs by MTT assay; format: functional, cell-based; details: HT-29, 48 h
[11] = Binding affinity to DNA (unknown origin) assessed as reduction in absorption maxima for methyl green/DNA complex incubated for 24 hrs by methyl green/DNA displacement assay
[12] = system: Bacillus cereus; assay: Antimicrobial activity against Bacillus cereus incubated for 24 hrs by serial dilution method; format: functional
[13] = system: Ehrlich; assay: Antitumor activity against mouse EAC cells implanted in Swiss albino mouse assessed as mean survival time at 0.5 mg for 9 days (reference value: 14.5 day); format: functional
[14] = system: Ehrlich; assay: Antitumor activity against mouse EAC cells implanted in Swiss albino mouse assessed as increase in life span at 0.5 mg for 9 days relative to untreated control; format: functional
[15] = system: Ehrlich; assay: Antitumor activity against mouse EAC cells implanted in Swiss albino mouse assessed as tumor volume at 0.5 mg for 9 days (reference value: 9.85 ml); format: functional
[16] = system: Mus musculus; assay: Toxicity in mouse EAC cells implanted Swiss albino mouse assessed as hemoglobin level at 0.5 mg for 9 days (reference value: 8.15 g/dl); format: organism-based; details: in vivo, 216 h
[17] = system: Mus musculus; assay: Toxicity in mouse EAC cells implanted Swiss albino mouse assessed as RBC count at 0.5 mg for 9 days (reference value: 3.69 10^6/mm3); format: organism-based; details: in vivo, 216 h
[18] = system: Mus musculus; assay: Toxicity in mouse EAC cells implanted Swiss albino mouse assessed as WBC count at 0.5 mg for 9 days (reference value: 23.96 10^3/mm3); format: organism-based; details: in vivo, 216 h
[19] = system: WI-38; assay: Cytotoxicity in human WI38 cells assessed as inhibition of cell viability incubated for 48 hrs by MTT assay; format: cell-based; details: WI-38, 48 h
[20] = system: Escherichia coli; assay: Antimicrobial activity against Escherichia coli incubated for 24 hrs by serial dilution method; format: functional

Molecule | diameter of the inhibition zone (DIZ) [1] [mm] | diameter of the inhibition zone (DIZ) [2] [mm] | diameter of the inhibition zone (DIZ) [3] [mm] | diameter of the inhibition zone (DIZ) [4] [mm] | diameter of the inhibition zone (DIZ) [5] [mm] | INH [6] [mm] | MIC [7] [µM] | IC50 [8] [µM] | IC50 [9] [µM] | IC50 [10] [µM] | IC50 [11] [µM] | MIC [12] [µM] | MST [13] [days] | ILS [14] [%] | Activity [15] [mL] | Activity [16] [g/dL] | Activity [17] [×10⁶ /mm3] | Activity [18] [×10³ /mm3] | IC50 [19] [µM] | MIC [20] [µM]
CC(=O)c1c(O)c2c3c(sc2[nH]c1=O)CCCCC3 | 12 | 9 | 8 | 9 | 24 | 5 | 563 (≈ 156 µg/mL) | 54.9 | 24.9 | 47.2 | 56.3 | – | – | – | – | – | – | – | – | –
GENTAMICIN | – | – | – | – | – | – | – | – | – | – | – | 0.31 | – | – | – | – | – | – | – | –
CCOC(=O)c1c(N/N=C2\C(=O)NN=C2C)sc2c1CCCCC2 | <2 | <2 | <2 | 10 | <2 | < 2 | – | 42.3 | 52.4 | 88.1 | – | – | – | – | – | – | – | – | – | –
Nc1nc2sc3c(c2c(=O)n1N)CCCCC3 | 11 | 17 | 5 | <2 | <2 | < 2 | – | 82.7 | 35.8 | 51.6 | – | 1250 (≈ 313 µg/mL) | – | – | – | – | – | – | – | –
NNC(=O)c1c(NN=C2C(=O)NNC2=O)sc2c1CCC2 | <2 | <2 | <2 | <2 | 17 | 8 | 1010 (≈ 313 µg/mL) | – | – | – | – | – | – | – | – | – | – | – | – | –
CC(=O)C1(C(=O)c2ccccc2)N=Nc2sc3c(c2C1=O)CCCCC3 (configuration not stated) | <2 | 16 | 5 | <2 | <2 | 11 | – | 14.1 | 11.8 | 9.7 | 21.4 | 853 (≈ 313 µg/mL) | 43.3 | 198.62 | 2.55 | 12.92 | 5.16 | 7.95 | 63.3 | –
CCOC(=O)c1c(-n2cnnn2)sc2c1CCCCC2 | 6 | 9 | 3 | <2 | <2 | < 2 | – | > 100 | 62.5 | > 100 | – | – | – | – | – | – | – | – | – | –
CCOC(=O)/C(C#N)=N/Nc1sc2c(c1C(=O)OCC)CCC2 | 7 | 7 | 11 | <2 | <2 | 8 | – | 58.2 | 45.5 | 72.1 | – | – | – | – | – | – | – | – | – | –
O=c1[nH]cc(F)c(=O)[nH]1 [FLUOROURACIL] | – | – | – | – | – | – | – | 6.9 | 5.7 | 4.6 | – | – | 49 | 237.9 | 1.6 | 12.96 | 5.21 | 8.86 | – | –
CCOC(=O)C1(C(C)=O)N=Nc2sc3c(c2C1=O)CCCCC3 (configuration not stated) | 17 | 5 | <2 | 5 | <2 | 3 | – | 91.2 | 50.2 | 78.6 | – | – | – | – | – | – | – | – | – | 934 (≈ 312 µg/mL)
N#Cc1c(O)c2c3c(sc2[nH]c1=O)CCCCC3 | 3 | 3 | <2 | <2 | 8 | < 2 | – | 22.7 | 19.1 | 27.3 | – | – | – | – | – | – | – | – | – | –
NNC(=O)c1c(N/N=C2/C(=O)NN=C2N)sc2c1CCCCC2 | <2 | <2 | <2 | <2 | <2 | 9 | – | 35.4 | 18.3 | 41.2 | – | – | – | – | – | – | – | – | – | –
CCOC(=O)C(=NNc1sc2c(c1C(=O)OCC)CCC2)C(=O)OCC | 7 | 5 | 9 | <2 | <2 | < 2 | – | > 100 | > 100 | > 100 | – | – | – | – | – | – | – | – | – | –
NNC(=O)c1c(NN=C2C(=O)NNC2=O)sc2c1CCCCC2 | <2 | <2 | <2 | <2 | <2 | 6 | – | 32.6 | 28.7 | 49.4 | – | – | – | – | – | – | – | – | – | –
CCOC(=O)C(=NNc1sc2c(c1C(=O)OCC)CCCCC2)C(=O)OCC | <2 | <2 | 5 | <2 | <2 | < 2 | – | 76.3 | 54 | 86.8 | – | – | – | – | – | – | – | – | – | –
COc1cccc2c1C(=O)c1c(O)c3c(c(O)c1C2=O)C[C@@](O)(C(=O)CO)C[C@@H]3O[C@H]1C[C@H](N)[C@H](O)[C@H](C)O1 [DOXORUBICIN] | – | – | – | – | – | – | – | – | – | – | 32.4 | – | – | – | – | – | – | – | – | –
CCOC(=O)c1c(NC(=O)CC#N)sc2c1CCCCC2 | <2 | <2 | <2 | 14 | <2 | 2 | – | > 100 | 60.4 | > 100 | – | – | – | – | – | – | – | – | – | –
CCOC(=O)/C(C#N)=N/Nc1sc2c(c1C(=O)OCC)CCCCC2 | <2 | 5 | 7 | 5 | <2 | 4 | – | > 100 | 70.9 | 92.8 | – | – | – | – | – | – | – | – | – | –
CCOC(=O)c1c(N/N=C(\C(C)=O)C(=O)c2ccccc2)sc2c1CCC2 | 7 | 14 | 9 | <2 | 2 | 3 | – | 28.4 | 13.7 | 57.4 | 29.8 | – | 33.5 | 130.95 | 3.53 | 11.74 | 4.79 | 9.62 | 67.8 | –
CCOC(=O)c1c(N/N=C(\C(C)=O)C(=O)c2ccccc2)sc2c1CCCCC2 | <2 | <2 | <2 | 11 | 18 | 3 | 758 (≈ 313 µg/mL) | 71.6 | 36.9 | 94.7 | – | – | – | – | – | – | – | – | – | –
CC1=NNC(=O)/C1=N\Nc1sc2c(c1C(=O)NN)CCCCC2 | <2 | <2 | <2 | <2 | <2 | 5 | – | 81.7 | 41.2 | 66.7 | – | – | – | – | – | – | – | – | – | –
CCOC(=O)c1c(N/N=C2\C(=O)NN=C2C)sc2c1CCC2 | <2 | <2 | 7 | 8 | <2 | < 2 | – | 92.4 | 57.2 | 84.5 | – | – | – | – | – | – | – | – | – | –
CCOC(=O)c1c(NC(=O)CC(C)=O)sc2c1CCCCC2 | <2 | <2 | <2 | <2 | <2 | < 2 | – | 89.7 | 62.8 | > 100 | – | – | – | – | – | – | – | – | – | –
Oc1cc(O)c2c(c1)O[C@H](c1ccc(O)c(O)c1)[C@@H](O)C2 | – | – | – | – | – | 2 | – | – | – | – | – | – | – | – | – | – | – | – | – | –
